Target: CK2α (Homo sapiens, UniProt P68400)
Assay: biochemical
Settings: read-out: % inhibition of phosphorylation activity of CK2α

Sequence of CK2α (P68400 2-329): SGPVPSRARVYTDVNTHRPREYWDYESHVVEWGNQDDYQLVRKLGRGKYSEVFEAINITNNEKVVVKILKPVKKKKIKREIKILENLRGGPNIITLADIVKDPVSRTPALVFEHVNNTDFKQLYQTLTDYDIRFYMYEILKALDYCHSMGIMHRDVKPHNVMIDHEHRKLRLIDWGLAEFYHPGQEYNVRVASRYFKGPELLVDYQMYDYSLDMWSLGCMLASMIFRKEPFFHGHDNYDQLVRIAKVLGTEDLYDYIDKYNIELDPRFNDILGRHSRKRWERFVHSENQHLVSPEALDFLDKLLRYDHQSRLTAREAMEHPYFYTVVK

`NCc1cc(Cl)cc(-c2cccc3[nH]ccc23)c1` [Compound 7, (3-chloro-5-(1H-indol-4-yl)phenyl)methanamine] gave an inhibition at 100 µM of 18%.

Reference: PMC6562204 (Bioorganic & Medicinal Chemistry, 2018)
